Activity calls are given as the source filed them. No cut-off for these calls is given here.
What was measured:
[1] = biological target: T1, von Hippel-Lindau disease tumor suppressor/Serine/threonine-protein kinase PAK 1 (Homo sapiens, UniProt Q13153+P40337); experiment: PROTAC activity at VHL/PAK1 in human MDA-MB-231 cells assessed as induction of protein degradation at 2.5 uM incubated for 48 hrs by Western blot analysis relative to control; format: cell-based
Target sequence in this assay (Q13153 2-545 limits assumed): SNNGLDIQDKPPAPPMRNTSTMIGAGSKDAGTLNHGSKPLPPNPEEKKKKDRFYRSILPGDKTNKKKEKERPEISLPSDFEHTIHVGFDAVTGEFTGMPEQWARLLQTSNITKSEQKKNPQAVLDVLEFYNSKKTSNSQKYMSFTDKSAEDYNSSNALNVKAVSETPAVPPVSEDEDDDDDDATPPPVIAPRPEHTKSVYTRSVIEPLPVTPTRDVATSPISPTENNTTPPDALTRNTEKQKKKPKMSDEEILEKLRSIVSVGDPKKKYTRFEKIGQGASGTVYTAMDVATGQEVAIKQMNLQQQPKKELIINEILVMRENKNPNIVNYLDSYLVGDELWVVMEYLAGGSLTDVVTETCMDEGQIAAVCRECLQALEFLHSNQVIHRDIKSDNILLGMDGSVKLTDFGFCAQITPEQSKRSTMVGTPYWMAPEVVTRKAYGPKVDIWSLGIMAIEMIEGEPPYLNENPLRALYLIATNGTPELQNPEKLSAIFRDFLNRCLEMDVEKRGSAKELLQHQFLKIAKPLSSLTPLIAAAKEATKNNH
Target sequence in this assay (P40337 whole entry partner): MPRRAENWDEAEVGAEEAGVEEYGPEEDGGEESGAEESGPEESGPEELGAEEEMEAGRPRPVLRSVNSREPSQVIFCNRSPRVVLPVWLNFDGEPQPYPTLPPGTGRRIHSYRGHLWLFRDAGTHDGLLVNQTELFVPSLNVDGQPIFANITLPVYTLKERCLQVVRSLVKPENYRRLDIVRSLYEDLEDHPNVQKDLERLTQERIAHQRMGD

[2] = biological target: T1, von Hippel-Lindau disease tumor suppressor/Serine/threonine-protein kinase PAK 1; experiment: PROTAC activity at VHL/PAK1 in human MDA-MB-231 cells assessed as induction of protein degradation at 0.1 uM incubated for 48 hrs by Western blot analysis relative to control; format: cell-based
Target sequence in this assay (Q13153 2-545 limits assumed): as the sequence (Q13153 2-545 limits assumed) above
Target sequence in this assay (P40337 whole entry partner): as the sequence (P40337 whole entry partner) above

[3] = biological target: T1, von Hippel-Lindau disease tumor suppressor/Serine/threonine-protein kinase PAK 1; experiment: PROTAC activity at VHL/PAK1 in human MDA-MB-231 cells assessed as fold change in protein expression at 2.5 uM incubated for 48 hrs by Western blot analysis relative to control; format: cell-based
Target sequence in this assay (Q13153 2-545 limits assumed): as the sequence (Q13153 2-545 limits assumed) above
Target sequence in this assay (P40337 whole entry partner): as the sequence (P40337 whole entry partner) above

[4] = biological target: T1, von Hippel-Lindau disease tumor suppressor/Serine/threonine-protein kinase PAK 1; experiment: PROTAC activity at VHL/PAK1 in human MDA-MB-231 cells assessed as induction of protein degradation incubated for 48 hrs by Western blot analysis; format: cell-based
[5] = biological target: T1, von Hippel-Lindau disease tumor suppressor/Serine/threonine-protein kinase PAK 1; experiment: PROTAC activity at VHL/PAK1 in human MDA-MB-231 cells assessed as induction of protein degradation incubated for 48 hrs in presence of VHL by Western blot analysis; format: cell-based
Target sequence in this assay (Q13153 2-545 limits assumed): as the sequence (Q13153 2-545 limits assumed) above
Target sequence in this assay (P40337 whole entry partner): as the sequence (P40337 whole entry partner) above

[6] = biological target: T2, Serine/threonine-protein kinase PAK 1 (Homo sapiens, UniProt Q13153); experiment: Inhibition of PAK1 in human MDA-MB-231 cells at 5 uM incubated for 24 hrs by immunofluorescence based analysis; format: cell-based
[7] = biological target: T2, Serine/threonine-protein kinase PAK 1; experiment: Inhibition of PAK1 in human MDA-MB-231 cells incubated upto 48 hrs by Western blot analysis; format: cell-based
[8] = biological target: T2, Serine/threonine-protein kinase PAK 1; experiment: Inhibition of PAK1 phosphorylation at S199 in human MDA-MB-231 cells incubated upto 48 hrs by Western blot analysis; format: cell-based
MDA-MB-231 [9] = experiment: Induction of apoptosis in human MDA-MB-231 cells assessed as early apoptotic cells at 2.5 to 10 uM incubated for 12 hrs by Annexin V-FITC/PI staining based flow cytometry (reference value: 1.70 %); format: functional; conditions: dose 2.5-10 µM
MDA-MB-231 [10] = experiment: Induction of apoptosis in human MDA-MB-231 cells assessed as late apoptotic cells at 2.5 to 10 uM incubated for 12 hrs by Annexin V-FITC/PI staining based flow cytometry (reference value: 2.46 %); format: functional; conditions: dose 2.5-10 µM
MDA-MB-231 [11] = experiment: Induction of apoptosis in human MDA-MB-231 cells assessed as viable cells at 2.5 to 10 uM incubated for 24 hrs by Annexin V-FITC/PI staining based flow cytometry (reference value: 94.8 %); format: functional; conditions: dose 2.5-10 µM
MDA-MB-231 [12] = experiment: Induction of apoptosis in human MDA-MB-231 cells assessed as early apoptotic cells at 2.5 to 10 uM incubated for 24 hrs by Annexin V-FITC/PI staining based flow cytometry (reference value: 1.70 %); format: functional; conditions: dose 2.5-10 µM
MDA-MB-231 [13] = experiment: Induction of apoptosis in human MDA-MB-231 cells assessed as necrotic cells at 2.5 to 10 uM incubated for 24 hrs by Annexin V-FITC/PI staining based flow cytometry (reference value: 1.08 %); format: functional; conditions: dose 2.5-10 µM
MDA-MB-231 [14] = experiment: Induction of apoptosis in human MDA-MB-231 cells assessed as viable cells at 2.5 to 10 uM incubated for 48 hrs by Annexin V-FITC/PI staining based flow cytometry (reference value: 94.8 %); format: functional; conditions: dose 2.5-10 µM
MDA-MB-231 [15] = experiment: Induction of apoptosis in human MDA-MB-231 cells assessed as early apoptotic cells at 2.5 to 10 uM incubated for 48 hrs by Annexin V-FITC/PI staining based flow cytometry (reference value: 1.70 %); format: functional; conditions: dose 2.5-10 µM
MDA-MB-231 [16] = experiment: Induction of apoptosis in human MDA-MB-231 cells assessed as necrotic cells at 2.5 to 10 uM incubated for 48 hrs by Annexin V-FITC/PI staining based flow cytometry (reference value: 1.08 %); format: functional; conditions: dose 2.5-10 µM
MDA-MB-231 [17] = experiment: Induction of apoptosis in human MDA-MB-231 cells assessed as increase in cleaved caspase-8 level at 2.5 to 10 uM incubated upto 48 hrs by Western blot analysis; format: functional, cell-based; conditions: dose 2.5-10 µM
MDA-MB-231 [18] = experiment: Induction of apoptosis in human MDA-MB-231 cells assessed as increase in cleaved PARP level at 2.5 to 10 uM incubated upto 48 hrs by Western blot analysis; format: functional, cell-based; conditions: dose 2.5-10 µM
MDA-MB-231 [19] = experiment: Inhibition of cell migration in human MDA-MB-231 cells upto 10 uM incubated upto 48 hrs by wound healing assay; format: functional, cell-based
MDA-MB-231 [20] = experiment: Inhibition of cell migration in human MDA-MB-231 cells assessed as increase in E-Cadherin level by Western blot analysis; format: functional, cell-based; conditions: time <= 48.0 hrs, TDE = time-dependent effect
MDA-MB-231 [21] = experiment: Inhibition of cell proliferation of human MDA-MB-231 cells at 2.5 uM by EdU staining based analysis; format: functional
MDA-MB-231 [22] = experiment: Inhibition of cell migration in human MDA-MB-231 cells at 2.5 uM incubated upto 48 hrs by wound healing assay; format: functional, cell-based
MDA-MB-231 [23] = experiment: Induction of apoptosis in human MDA-MB-231 cells assessed as viable cells at 2.5 uM incubated for 12 to 48 hrs by Annexin V-FITC/PI staining based flow cytometry (reference value: 97.0 %); format: functional; conditions: time 12-48 hrs, read-out: Activity
MDA-MB-231 [24] = experiment: Induction of apoptosis in human MDA-MB-231 cells assessed as early apoptotic cells at 2.5 uM incubated for 12 to 48 hrs by Annexin V-FITC/PI staining based flow cytometry (reference value: 1.12 %); format: functional; conditions: time 12-48 hrs
MDA-MB-231 [25] = experiment: Antitumor activity against human MDA-MB-231 cells xenografted in BALB/c mouse assessed as reduction in tumor weight at 20 mg/kg, ip qd for 12 days; format: functional, organism-based; conditions: time 12.0 day
[26] = Toxicity in BALB/c mouse xenografted with human MDA-MB-231 cells assessed as body weight change at 20 mg/kg, ip qd for 12 days; format: organism-based; conditions: in vivo, 288 h, time 12 day
MDA-MB-231 [27] = experiment: Inhibition of cell proliferation of human MDA-MB-231 cells xenografted in BALB/c mouse assessed as reduction in Ki-67 level at 20 mg/kg, ip qd for 12 days by IHC analysis; format: functional, organism-based; conditions: time 12.0 day
[28] = biological target: T2, Serine/threonine-protein kinase PAK 1; experiment: In vivo inhibition of PAK1 in human MDA-MB-231 cells xenografted in BALB/c mouse at 20 mg/kg, ip qd for 12 days by Western blot analysis; format: functional, organism-based; conditions: time 12.0 day
MDA-MB-231 [29] = experiment: Induction of apoptosis in human MDA-MB-231 cells xenografted in BALB/c mouse assessed as increase in Bax level at 20 mg/kg, ip qd for 12 days by Western blot analysis; format: functional, organism-based; conditions: time 12.0 day
MDA-MB-231 [30] = experiment: Induction of apoptosis in human MDA-MB-231 cells xenografted in BALB/c mouse assessed as increase in PARP level at 20 mg/kg, ip qd for 12 days by Western blot analysis; format: functional, organism-based; conditions: time 12.0 day
MDA-MB-231 [31] = experiment: Induction of apoptosis in human MDA-MB-231 cells xenografted in BALB/c mouse assessed as decrease in ERK1/2 phosphorylation at Thr202/Tyr204 at 20 mg/kg, ip qd for 12 days by Western blot analysis; format: functional, organism-based; conditions: time 12.0 day
MDA-MB-231 [32] = experiment: Induction of apoptosis in human MDA-MB-231 cells xenografted in BALB/c mouse assessed as decrease in MMP-2 at 20 mg/kg, ip qd for 12 days by Western blot analysis; format: functional, organism-based; conditions: time 12.0 day

T2 sequence (Q13153 whole entry): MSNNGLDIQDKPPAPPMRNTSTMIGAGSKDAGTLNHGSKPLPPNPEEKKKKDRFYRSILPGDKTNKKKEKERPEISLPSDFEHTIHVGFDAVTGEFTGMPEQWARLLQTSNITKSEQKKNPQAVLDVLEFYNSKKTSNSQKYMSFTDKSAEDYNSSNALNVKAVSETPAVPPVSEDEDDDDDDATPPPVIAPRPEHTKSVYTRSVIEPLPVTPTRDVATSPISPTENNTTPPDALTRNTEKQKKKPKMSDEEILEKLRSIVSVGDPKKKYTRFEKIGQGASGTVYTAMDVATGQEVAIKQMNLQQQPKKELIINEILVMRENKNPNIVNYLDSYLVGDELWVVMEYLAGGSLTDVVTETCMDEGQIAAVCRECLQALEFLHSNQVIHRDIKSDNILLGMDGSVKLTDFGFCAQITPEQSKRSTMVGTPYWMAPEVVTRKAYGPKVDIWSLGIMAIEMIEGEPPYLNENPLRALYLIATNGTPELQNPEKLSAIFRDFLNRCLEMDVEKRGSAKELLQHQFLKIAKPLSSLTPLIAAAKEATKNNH

Activity [1]: 71%
Activity [2]: 52.4%
fold change (FC) [3]: 0.29
DC50 [4]: 480 nM
Activity ([4]; dose <= 200.0 µM): Dose-Dependent Effect
Activity [5]: inactive
inhibition [6]: Active
inhibition [7]: Active
inhibition [8]: Active
inhibition [28]: Active
SMILES: Cc1ncsc1-c1ccc([C@H](C)NC(=O)[C@@H]2C[C@@H](O)CN2C(=O)[C@@H](NC(=O)CCc2cn(CCCCCCCn3c(=O)c(-c4ccc(Cl)cc4Cl)cc4cnc(NC5CC5)nc43)nn2)C(C)(C)C)cc1
Activity (MDA-MB-231 [9]): 4.37%
Activity (MDA-MB-231 [10]): 5.67%
Activity (MDA-MB-231 [11]): 76.6%
Activity (MDA-MB-231 [12]): 11.7%
Activity (MDA-MB-231 [13]): 4.92%
Activity (MDA-MB-231 [14]): 55.4%
Activity (MDA-MB-231 [15]): 37.9%
Activity (MDA-MB-231 [16]): 1.74%
Activity (MDA-MB-231 [17]): Active
Activity (MDA-MB-231 [18]): Active
inhibition (MDA-MB-231 [19]): Active
inhibition (MDA-MB-231 [20]): Tde
inhibition (MDA-MB-231 [21]): Active
inhibition (MDA-MB-231 [22]): Active
viability at 2.5 µM (MDA-MB-231 [23]): 84.8%
Activity (MDA-MB-231 [24]): 5.62%
Activity (MDA-MB-231 [25]): Active
Activity [26]: Non-Toxic
inhibition (MDA-MB-231 [27]): Active
Activity (MDA-MB-231 [29]): Active
Activity (MDA-MB-231 [30]): Active
Activity (MDA-MB-231 [31]): Active
Activity (MDA-MB-231 [32]): Active
